Values belong to the molecule of their own block, whether it stands above or below them.
Legend:
HCT-116 = test: cells; type: functional, cell-based; conditions: Homo sapiens, HCT-116, 72 h
Description: Antiproliferative activity against human HCT-116 cells assessed as inhibition of cell proliferation measured after 72 hrs by MTT assay

MCF7 = test: cells; type: functional, cell-based; conditions: Homo sapiens, MCF7, 72 h
Description: Antiproliferative activity against human MCF7 cells assessed as inhibition of cell proliferation measured after 72 hrs by MTT assay

A549 = test: cells; type: functional, cell-based; conditions: Homo sapiens, A549, 72 h
Description: Antiproliferative activity against human A549 cells assessed as inhibition of cell proliferation measured after 72 hrs by MTT assay

Histone deacetylase 1 [1] = biological target: T1, Histone deacetylase 1 (Homo sapiens, UniProt Q13547); conditions: Sf9, dose 100.0 nM, time 75.0 min
[2] = biological target: T2, Hepatocyte growth factor receptor (Homo sapiens, UniProt P08581); conditions: dose 100.0 nM, time 10.0 min
Histone deacetylase 1 [3] = biological target: T1, Histone deacetylase 1; test: Inhibition of human C-terminal Flag tagged HDAC1 (1 to 482 residues) expressed in SF9 cells using Ac-peptide substrate preincubated for 15 mins followed by substrate addition and measured after 60 mins by microplate reader method
[4] = biological target: T2, Hepatocyte growth factor receptor; test: Inhibition of c-MET(unknown origin) using FAM labelled peptide substrate preincubated for 10 mins followed by substrate addition and measured by microplate reader method

T1 sequence (Q13547 whole entry): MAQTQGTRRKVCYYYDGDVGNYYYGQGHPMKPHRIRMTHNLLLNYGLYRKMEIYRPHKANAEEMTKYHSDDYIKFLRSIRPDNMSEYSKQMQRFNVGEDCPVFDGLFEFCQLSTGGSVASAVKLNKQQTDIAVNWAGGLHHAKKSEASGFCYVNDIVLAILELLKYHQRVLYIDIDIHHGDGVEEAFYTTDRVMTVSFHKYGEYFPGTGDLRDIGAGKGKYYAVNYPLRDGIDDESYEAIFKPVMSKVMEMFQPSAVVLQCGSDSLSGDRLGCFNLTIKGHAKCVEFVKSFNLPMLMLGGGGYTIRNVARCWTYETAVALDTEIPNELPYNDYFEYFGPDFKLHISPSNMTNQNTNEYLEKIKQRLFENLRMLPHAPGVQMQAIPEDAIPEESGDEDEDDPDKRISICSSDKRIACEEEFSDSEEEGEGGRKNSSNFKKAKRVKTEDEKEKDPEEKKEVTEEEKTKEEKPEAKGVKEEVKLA
T2 sequence (P08581 whole entry, the tested form may be a part): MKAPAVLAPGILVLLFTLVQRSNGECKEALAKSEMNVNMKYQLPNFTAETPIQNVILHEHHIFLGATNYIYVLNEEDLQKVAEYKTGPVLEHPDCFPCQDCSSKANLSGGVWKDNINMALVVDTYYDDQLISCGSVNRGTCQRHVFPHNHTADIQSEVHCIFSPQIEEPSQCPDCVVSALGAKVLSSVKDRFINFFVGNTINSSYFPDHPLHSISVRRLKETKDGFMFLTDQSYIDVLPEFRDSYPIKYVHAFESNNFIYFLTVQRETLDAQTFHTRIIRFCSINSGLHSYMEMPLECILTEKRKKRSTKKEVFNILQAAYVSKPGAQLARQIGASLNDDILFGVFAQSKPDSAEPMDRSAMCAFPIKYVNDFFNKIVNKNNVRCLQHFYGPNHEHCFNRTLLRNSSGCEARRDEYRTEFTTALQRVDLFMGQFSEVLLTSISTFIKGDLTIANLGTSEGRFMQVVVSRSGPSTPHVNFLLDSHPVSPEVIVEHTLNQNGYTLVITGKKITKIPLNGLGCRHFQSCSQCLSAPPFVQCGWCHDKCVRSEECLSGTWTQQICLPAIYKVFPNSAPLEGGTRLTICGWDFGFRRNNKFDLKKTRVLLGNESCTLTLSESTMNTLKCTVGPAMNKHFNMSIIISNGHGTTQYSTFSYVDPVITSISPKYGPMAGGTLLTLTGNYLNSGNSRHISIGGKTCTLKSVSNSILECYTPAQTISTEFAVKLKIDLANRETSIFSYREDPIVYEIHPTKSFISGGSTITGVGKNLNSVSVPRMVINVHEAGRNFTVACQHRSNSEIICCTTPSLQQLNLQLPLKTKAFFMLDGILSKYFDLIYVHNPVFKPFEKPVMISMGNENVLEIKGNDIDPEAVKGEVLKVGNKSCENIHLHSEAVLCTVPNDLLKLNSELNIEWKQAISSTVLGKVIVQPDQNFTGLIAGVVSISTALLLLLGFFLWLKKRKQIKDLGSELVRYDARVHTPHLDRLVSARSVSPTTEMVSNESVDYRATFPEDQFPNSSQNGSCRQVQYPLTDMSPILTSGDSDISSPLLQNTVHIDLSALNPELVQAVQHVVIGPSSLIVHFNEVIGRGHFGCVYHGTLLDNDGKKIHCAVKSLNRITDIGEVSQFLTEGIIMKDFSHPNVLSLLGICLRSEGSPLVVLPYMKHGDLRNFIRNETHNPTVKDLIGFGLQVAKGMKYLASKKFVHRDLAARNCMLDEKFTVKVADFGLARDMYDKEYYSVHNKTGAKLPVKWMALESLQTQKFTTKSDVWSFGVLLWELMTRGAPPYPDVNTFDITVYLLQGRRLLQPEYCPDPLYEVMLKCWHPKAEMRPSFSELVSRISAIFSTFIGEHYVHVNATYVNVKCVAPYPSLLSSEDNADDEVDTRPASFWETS

Structure (SMILES): COc1cc2c(Oc3ccc(NC(=O)c4nn(-c5ccccc5)cc(C)c4=O)cc3)ccnc2cc1OCCCCCCC(=O)NO
- IC50 (Histone deacetylase 1 [3]): 0.034 µM
- IC50 [4]: 0.0199 µM
- IC50 (HCT-116): 0.15 µM
- IC50 (MCF7): 1.61 µM
- IC50 (A549): 0.42 µM
- inhibition (Histone deacetylase 1 [1]): 86.6%
- inhibition [2]: 88.6%

Structure (SMILES): COc1cc2c(Oc3ccc(NC(=O)c4nn(-c5ccc(C)cc5C)cc(C)c4=O)cc3)ccnc2cc1OCCCCCCC(=O)NO
- IC50 (HCT-116): 0.44 µM
- IC50 (MCF7): 2.43 µM
- IC50 (A549): 1.84 µM
- inhibition (Histone deacetylase 1 [1]): 65.3%
- inhibition [2]: 63.8%

Structure (SMILES): COc1cc2c(Oc3ccc(NC(=O)c4nn(-c5ccc(C)cc5)cc(C)c4=O)cc3)ccnc2cc1OCCCCCCC(=O)NO
- IC50 (HCT-116): 0.4 µM
- IC50 (MCF7): 2.56 µM
- IC50 (A549): 0.16 µM
- inhibition (Histone deacetylase 1 [1]): 47.6%
- inhibition [2]: 72.8%

Structure (SMILES): COc1cc2c(Oc3ccc(NC(=O)c4nn(-c5ccccc5)cc(C)c4=O)cc3F)ccnc2cc1OCCCN1CCOCC1
- IC50 [4]: 0.00742 µM
- IC50 (HCT-116): 0.37 µM
- IC50 (MCF7): 0.63 µM
- IC50 (A549): 1.12 µM
- inhibition [2]: 93.8%

Structure (SMILES): O=C(CCCCCCC(=O)Nc1ccccc1)NO
- inhibition [2]: 2.8%

Structure (SMILES): COc1cc2c(Oc3ccc(NC(=O)c4nn(-c5ccccc5C)cc(C)c4=O)cc3)ccnc2cc1OCCCCCCC(=O)NO
- IC50 (HCT-116): 0.66 µM
- IC50 (MCF7): 1.83 µM
- IC50 (A549): 3.13 µM
- inhibition (Histone deacetylase 1 [1]): 89.1%
- inhibition [2]: 78.6%

Structure (SMILES): COc1cc2c(Oc3ccc(NC(=O)c4nn(-c5cccc(C(F)(F)F)c5)cc(C)c4=O)cc3)ccnc2cc1OCCCCCCC(=O)NO
- IC50 (HCT-116): 0.59 µM
- IC50 (MCF7): 0.75 µM
- IC50 (A549): 0.78 µM
- inhibition (Histone deacetylase 1 [1]): 35.3%
- inhibition [2]: 46.3%

More lines, now with the values ahead:

- IC50 (HCT-116): 0.29 µM
- IC50 (MCF7): 1.83 µM
- IC50 (A549): 1.82 µM
- inhibition (Histone deacetylase 1 [1]): 36.9%
- inhibition [2]: 95.7%
Structure (SMILES): COc1cc2c(Oc3ccc(NC(=O)c4nn(-c5ccccc5C)cc(C)c4=O)cc3)ccnc2cc1OCCCCCC(=O)NO

- IC50 (HCT-116): 1.12 µM
- IC50 (MCF7): 2.1 µM
- IC50 (A549): 1.37 µM
- inhibition (Histone deacetylase 1 [1]): 7.1%
- inhibition [2]: 94%
Structure (SMILES): COc1cc2c(Oc3ccc(NC(=O)c4nn(-c5ccccc5F)cc(C)c4=O)cc3F)ccnc2cc1OCCCC(=O)NO

- IC50 (HCT-116): 3.98 µM
- IC50 (MCF7): 3.2 µM
- IC50 (A549): 5.74 µM
- inhibition (Histone deacetylase 1 [1]): 6%
- inhibition [2]: 93.5%
Structure (SMILES): COc1cc2c(Oc3ccc(NC(=O)c4nn(-c5ccccc5C)ccc4=O)cc3F)ccnc2cc1OCCCC(=O)NO

- IC50 (HCT-116): 2.04 µM
- IC50 (MCF7): 2.6 µM
- IC50 (A549): 2.09 µM
- inhibition (Histone deacetylase 1 [1]): 8%
- inhibition [2]: 95.5%
Structure (SMILES): COc1cc2c(Oc3ccc(NC(=O)c4nn(-c5ccccc5C)cc(C)c4=O)cc3F)ccnc2cc1OCCCC(=O)NO

- IC50 (HCT-116): 0.59 µM
- IC50 (MCF7): 2.32 µM
- IC50 (A549): 1.32 µM
- inhibition (Histone deacetylase 1 [1]): 61.1%
- inhibition [2]: 89.1%
Structure (SMILES): COc1cc2c(Oc3ccc(NC(=O)c4nn(-c5ccccc5F)cc(C)c4=O)cc3F)ccnc2cc1OCCCCCC(=O)NO

- IC50 (HCT-116): 0.69 µM
- IC50 (MCF7): 2.33 µM
- IC50 (A549): 4.17 µM
- inhibition (Histone deacetylase 1 [1]): 53.3%
- inhibition [2]: 95%
Structure (SMILES): COc1cc2c(Oc3ccc(NC(=O)c4nn(-c5ccccc5)cc(C)c4=O)cc3F)ccnc2cc1OCCCCCC(=O)NO
